Measured values taken from US6884821B1, “Carboxylic acid derivatives and drugs containing the same” (Eisai Co., Ltd., priority 1999, dated 2005).
Where two headings read alike, the source gives them in different places.

What was measured:
[1] = tested on: male db/db mice; experiment: Measurement of blood sugar reduction, blood triglyceride reduction and blood free fatty acid reduction in db/db mice; conditions: in vivo db/db mice, day 9 after administration, oral once a day
Experimental: Measurement of Blood Sugar Reduction, Blood Triglyceride Reduction and Blood Free Fatty Acid Reduction
Blood, was collected through a tail vein after the mice were fasted for 1 hour, before administration, and on Day 4 and Day 9 after administration, respectively. On Day 10, an oral glucose loading test was conducted; in this test, the mice were fasted overnight from the previous day, and in the next morning, 2 g/kg glucose was given to the mice. Plasma glucose, triglycerides (TG), free fatty acid (NEFA) were measured by using commercial kits, that is, Glucose C-II Test Wako (trade name) (Wako Pure Chemical Industries, Ltd., Tokyo), Deteminer L TG II (trade name) (Kyowa Medex, Tokyo) and NEFA C-Test Wako (Wako Pure Chemical Industries, Ltd., Tokyo), respectively.

[2] = molecular target: T1, human PPARα (Homo sapiens, UniProt Q07869); experiment: Measurement of transcriptional activity (GAL4-PPAR LBD chimera, PLAP reporter, CV-1 cells); format: cell-based
T1 construct: human PPAR 167-468 (PPARα), 138-440 (NUC-1) and 174-475 (PPARY) amino acid regions; expressed in transfected cells; host or cells: CV-1 (ATCC CCL-70D)
T1 sequence (Q07869 167-468): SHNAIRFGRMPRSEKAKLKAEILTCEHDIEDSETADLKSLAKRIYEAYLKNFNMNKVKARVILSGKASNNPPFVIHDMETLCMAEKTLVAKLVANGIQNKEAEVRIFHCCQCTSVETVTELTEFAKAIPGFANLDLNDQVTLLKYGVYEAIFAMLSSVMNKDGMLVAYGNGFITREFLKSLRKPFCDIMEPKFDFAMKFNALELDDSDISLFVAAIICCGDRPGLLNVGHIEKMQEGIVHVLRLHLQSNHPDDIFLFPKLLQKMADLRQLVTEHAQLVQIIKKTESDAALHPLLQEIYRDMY
Experimental: (§1) Measurement of Transcriptional Activity
(§2) As the reporter gene, PLAP (Placental Alkaline Phosphatase) was used, and this was ligated downstream of a TK promoter containing a 5-copy GAL4 DNA binding element to construct a vector. As host cells, CV-1 (ATCC CCL-70D) was used. That is, CV-1 cells were spread at a density of 5×10^5 cells on a 35-mm dish and cultured in 10% FCS/DMEM for 24 hours, and using FuGENE 6 transfection reagent, the cells were co-transfected with the GAL4-PPAR LBD expression vector and GAL4 DBD-TK-PLAP expression vector. 24 hours after this transfection, the cells were spread again on a 96-well plate at a density of 1×10^4/well and further cultured for 24 hours. After 24 hours, the medium was exchanged with DMEM containing 10% FCS, which was previously treated at 65° C. for inactivating intrinsic alkaline phosphatase, and a test compound was added at an arbitrary concentration. […] The […] was determined after adding 50 μl assay buffer and 50 μl chemoluminescence substrate to 10 μl culture supernatant and incubating the mixture at room temperature for 1 hour.

[3] = molecular target: T2, human PPARβ (NUC-1) (Homo sapiens, UniProt Q03181); experiment: as above; format: cell-based
T2 construct: human PPAR 167-468 (PPARα), 138-440 (NUC-1) and 174-475 (PPARY) amino acid regions; expressed in transfected cells; host or cells: CV-1 (ATCC CCL-70D)
T2 sequence (Q03181 138-440): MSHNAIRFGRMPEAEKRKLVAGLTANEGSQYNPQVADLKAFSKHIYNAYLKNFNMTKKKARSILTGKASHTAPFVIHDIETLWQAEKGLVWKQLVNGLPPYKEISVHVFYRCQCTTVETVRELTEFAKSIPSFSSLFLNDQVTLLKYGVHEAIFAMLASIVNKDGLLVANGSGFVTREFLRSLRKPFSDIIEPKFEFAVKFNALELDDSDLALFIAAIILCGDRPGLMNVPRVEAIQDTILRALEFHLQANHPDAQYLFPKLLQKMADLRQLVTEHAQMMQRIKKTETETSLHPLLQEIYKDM
Experimental: as §1, §2

[4] = molecular target: T3, human PPARγ (Homo sapiens, UniProt P37231); experiment: as above; format: cell-based; conditions: PLAP activity 24 hours after addition of the compound, read-out: Transcriptional activities EC50 PRAR γ
T3 construct: human PPAR 167-468 (PPARα), 138-440 (NUC-1) and 174-475 (PPARY) amino acid regions; expressed in transfected cells; host or cells: CV-1 (ATCC CCL-70D)
T3 sequence (P37231 204-505): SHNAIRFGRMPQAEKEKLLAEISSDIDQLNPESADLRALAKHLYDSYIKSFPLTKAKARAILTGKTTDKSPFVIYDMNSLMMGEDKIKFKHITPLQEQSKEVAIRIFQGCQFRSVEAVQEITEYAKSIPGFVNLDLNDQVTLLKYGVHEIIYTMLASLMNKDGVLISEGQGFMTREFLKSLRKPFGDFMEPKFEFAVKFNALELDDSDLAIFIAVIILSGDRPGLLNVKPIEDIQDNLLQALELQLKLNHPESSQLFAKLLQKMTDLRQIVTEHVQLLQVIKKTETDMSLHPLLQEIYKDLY
Experimental: as §1, §2

[5] = CV-1 cells, GAL4-PPAR LBD chimera, PLAP activity 24 hours after addition of the compound, read-out: Transcriptional activities EC50 PRAR α
[6] = CV-1 cells, GAL4-PPAR LBD chimera, PLAP activity 24 hours after addition of the compound, read-out: Transcriptional activities EC50 PRAR β

Structure (SMILES)	EC50 [2, 5] [nM]	EC50 [3, 6] [nM]	EC50 [4] [nM]	Blood free fatty acid reduction (%) ([1]; 1 mg/kg/day (*))	Blood sugar reduction (%) ([1]; 1 mg/kg/day (*))	Blood triglycerides reduction (%) ([1]; 1 mg/kg/day (*))	Blood free fatty acid reduction (%) ([1]; 30 mg/kg/day)	Blood sugar reduction (%) ([1]; 30 mg/kg/day)	Blood triglycerides reduction (%) ([1]; 30 mg/kg/day)	EC50 [2] [nM]	EC50 [3] [nM]
COc1ccc(CC(OC(C)C)C(=O)O)cc1C(=O)NCc1ccc(C(F)(F)F)cc1 (centres unmarked) [Example 2d), 2-Isopropoxy-3-(4-methoxy-3-({[4-(trifluoromethyl)benzyl]amino}carbonyl)phenyl)propanoic acid]	80	2510	382	–	–	–	46.7	44.6	71.6	–	–
CCC(Cc1ccc(OC)c(C(=O)NCc2ccc(C(F)(F)F)cc2)c1)C(=O)O (centres unmarked) [Example 5d), 2-[4-Methoxy-3-({[4-(trifluoromethyl)benzyl]amino}carbonyl)benzyl)butanoic acid]	–	–	–	–	–	–	65.5	53.6	58.8	394	789
COc1ccc(CC(OC(C)(C)C)C(=O)O)cc1C(=O)NCc1ccc(C(F)(F)F)cc1 (centres unmarked) [Example 3d), 2-tert-Butoxy-3-(4-methoxy-3-({[4-(trifluoromethyl)benzyl]amino}carbonyl)phenyl)propanoic acid]	87	5070	217	–	–	–	47	27.5	63.8	–	–

The next lines start with results.

EC50 [2, 5] [nM]	EC50 [3, 6] [nM]	EC50 [4] [nM]	Structure (SMILES)	Blood free fatty acid reduction (%) ([1]; 1 mg/kg/day (*))	Blood sugar reduction (%) ([1]; 1 mg/kg/day (*))	Blood triglycerides reduction (%) ([1]; 1 mg/kg/day (*))	Blood free fatty acid reduction (%) ([1]; 30 mg/kg/day)	Blood sugar reduction (%) ([1]; 30 mg/kg/day)	Blood triglycerides reduction (%) ([1]; 30 mg/kg/day)	EC50 [2] [nM]	EC50 [3] [nM]
28	432	16	COc1ccc(C[C@H](OC(C)C)C(=O)O)cc1CNC(=O)c1ccc(Cl)cc1Cl [Example 37e), (2S)-3-[3-([2,4-dichlorobenzoyl]aminomethyl)-4-methoxyphenyl]-2-isopropoxypropanoic acid]	70.2	48.1	68.3	–	–	–	–	–
12	37	47	COc1ccc(C[C@H](OC(C)C)C(=O)O)cc1CNC(=O)c1ccc(C(F)(F)F)cc1F [Example 36g), (2S)-3-[3-([2-fluoro-4-(trifluoromethyl)benzoyl]aminomethyl)-4-methoxyphenyl]-2-isopropoxypropanoic acid]	54.0	51.5	55.2	–	–	–	–	–
162	8050	> 10000	CCC(Cc1ccc(OC)c(NC(=O)Cc2ccc(C(F)(F)F)c(F)c2)c1)C(=O)O (centres unmarked) [Example 18d), 2-(4-Methoxy-3-{[2-(3-fluoro-4-trifluoromethylphenyl)acetyl]amino}benzyl)butanoic acid]	–	–	–	–	–	–	–	–
701	> 30000	746	CCCOC(Cc1ccc(OC)c(C(=O)NCc2ccc(C(F)(F)F)cc2)c1)C(=O)O (centres unmarked) [Example 9d), 3-[4-methoxy-3-({[4-(trifluoromethyl)benzyl]amino}carbonyl)phenyl]-2-propoxypropanoic acid]	–	–	–	62.9	46.1	80.4	–	–
